{"source": "patent US20040127537A1", "about": "(priority 2002, published 2004)", "key": {"[1]": {"experiment": "Example 6: buffer capacity titration of parecoxib sodium formulations with added buffer", "format": "physicochemical", "conditions": "for Improvement in buffer capacity: parecoxib sodium 40 mg/ml f.a.e., acid to adjust pH 8.5 to 7.4, with versus without buffer; for effect of added buffer on buffer capacity: parecoxib sodium formulations tested, PEG 600/WFI", "protocol": "The amount of titrant used to titrate each parecoxib sodium/buffer solution was compared with that required to titrate a parecoxib solution without buffer. Percent improvement in buffer capacity was determined by comparing the amount of acid required to adjust pH from 8.5 to 7.4 in the presence versus absence of buffer."}, "[2]": {"experiment": "Example 6: solubility of buffers in PEG 600/water solvent liquid", "format": "physicochemical", "conditions": "solvent liquid 65% PEG 600 and 35% water, room temperature"}, "[3]": {"experiment": "Example 3: stability of parecoxib sodium in PEG-containing solvent liquids", "format": "physicochemical", "conditions": "70° C., 7 days, FIG. 3", "protocol": "(§1) The procedure was similar to that of Example 1. Valdecoxib formed was calculated as a percentage of parecoxib initially present."}, "[4]": {"experiment": "Example 2: stability of parecoxib sodium in solvent liquids with different solubilizers", "format": "physicochemical", "conditions": "55° C., 3 days, FIG. 2", "protocol": "as §1"}, "[5]": {"experiment": "Example 1: stability of parecoxib sodium in candidate solubilizers (valdecoxib formed, HPLC)", "format": "physicochemical", "conditions": "40 mg/ml f.a.e., 70° C., 7 days, FIG. 1", "protocol": "Formulations were prepared and sealed in Type I vials. […] Valdecoxib formed was calculated as a percentage of parecoxib initially present."}, "[6]": {"experiment": "Example 4: storage stability of liquid formulations LF1-LF9 (valdecoxib formed, HPLC)", "format": "physicochemical", "conditions": "PEG/water formulations of Example 4 (PEG 300, 400, 600)", "protocol": "Each vial was flushed with nitrogen gas prior to stoppering.\nValdecoxib was measured by HPLC and was calculated as a percentage of parecoxib initially present."}, "[7]": {"target": "COX-1 (Homo sapiens, UniProt P23219)", "sequence (P23219 24-599)": "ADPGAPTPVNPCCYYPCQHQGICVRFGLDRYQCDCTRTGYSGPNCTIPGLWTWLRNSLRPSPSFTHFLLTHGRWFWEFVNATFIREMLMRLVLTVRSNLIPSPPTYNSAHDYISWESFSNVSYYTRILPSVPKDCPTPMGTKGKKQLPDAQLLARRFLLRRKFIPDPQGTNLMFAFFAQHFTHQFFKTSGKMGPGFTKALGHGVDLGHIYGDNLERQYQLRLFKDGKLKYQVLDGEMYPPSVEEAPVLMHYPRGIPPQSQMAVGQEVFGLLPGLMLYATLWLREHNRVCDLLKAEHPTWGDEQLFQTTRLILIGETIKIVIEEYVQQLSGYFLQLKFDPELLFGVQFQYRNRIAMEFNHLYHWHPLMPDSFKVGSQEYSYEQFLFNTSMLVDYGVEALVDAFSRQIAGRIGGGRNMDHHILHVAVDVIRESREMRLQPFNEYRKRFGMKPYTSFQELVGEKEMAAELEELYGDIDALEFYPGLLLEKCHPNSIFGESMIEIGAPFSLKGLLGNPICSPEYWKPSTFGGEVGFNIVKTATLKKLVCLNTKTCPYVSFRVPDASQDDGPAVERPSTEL", "conditions": "cited from earlier work"}, "[8]": {"experiment": "precipitation of parecoxib free acid on downward pH drift of composition", "format": "physicochemical", "conditions": "parecoxib salt composition, downward pH drift on storage", "description": "Presence of precipitated parecoxib free acid in a parenteral composition is undesirable as it can cause local pain and irritation upon injection."}, "[9]": {"experiment": "conversion of parecoxib to valdecoxib after parenteral administration", "format": "in vivo", "conditions": "human subject", "description": "The term “equal” in this context means equal in molar amount or in absolute amount (i.e., in weight)."}, "[10]": {"conditions": "cited from earlier work"}}}
{"smiles": "N=C(N)NCCC[C@H](N)C(=O)O", "note": "[L-arginine]", "values": [{"measurement": "Improvement in buffer capacity", "setting": "[1]; PEG 600/WFI 65/35 % by weight", "value": "negligible"}]}
{"smiles": "NCC(=O)O", "note": "[glycine]", "values": [{"measurement": "Improvement in buffer capacity", "setting": "[1]; PEG 600/WFI 55/45 % by weight", "value": "negligible"}, {"measurement": "Improvement in buffer capacity", "setting": "[1]; PEG 600/WFI 65/35 % by weight", "value": "negligible"}]}
{"smiles": "N[C@@H](Cc1c[nH]cn1)C(=O)O", "note": "[histidine]", "values": [{"measurement": "Solubility > 0.01 M", "setting": "[2]", "value": "no"}]}
{"smiles": "CCC(=O)NS(=O)(=O)c1ccc(-c2c(-c3ccccc3)noc2C)cc1", "note": "[parecoxib sodium]", "values": [{"measurement": "stability (valdecoxib formed)", "setting": "[3]; 65% PEG 300, PEG 400 or PEG 600 in water", "value": "acceptably stable"}, {"measurement": "valdecoxib formed, comparison of PEG grades", "setting": "[3]; 65% PEG 600 or PEG 400 versus 65% PEG 300 in water", "value": "less valdecoxib formed"}, {"measurement": "stability (valdecoxib formed)", "setting": "[4]; propylene glycol containing solvent liquids", "value": "less so"}, {"measurement": "stability (valdecoxib formed)", "setting": "[4]; solvent liquids comprising PEG 300, ethanol or DMAC, with or without water", "value": "stable"}, {"measurement": "conversion to valdecoxib", "setting": "[4]; solvent liquids comprising glycerin", "value": "significant conversion to valdecoxib"}, {"measurement": "buffering effect of parecoxib sodium itself", "setting": "[1]; less concentrated PEG solutions", "value": "weaker buffering effect"}, {"measurement": "buffering effect of parecoxib sodium itself", "setting": "[1]; more highly concentrated PEG solutions", "value": "excellent buffer"}, {"measurement": "valdecoxib formed (stability)", "setting": "[5]; PEG 300, DMAC, 95% ethanol or 10 mM phosphate buffer pH 8.1 versus propylene glycol", "value": "less valdecoxib was formed"}, {"measurement": "conversion of parecoxib to valdecoxib", "setting": "[5]; in presence of glycerin", "value": "very rapid"}, {"measurement": "parecoxib sodium stability as a function of PEG molecular weight", "setting": "[6]", "value": "increases with increasing PEG molecular weight"}]}
{"smiles": "CCC(=O)NS(=O)(=O)c1ccc(-c2c(-c3ccccc3)noc2C)cc1", "note": "[parecoxib, N-[[4-(5-methyl-3-phenylisoxazol-4-yl)phenyl]sulfonyl]propanamide]", "values": [{"measurement": "in vitro inhibitory activity against COX-1", "setting": "[7]", "value": "weak in vitro inhibitory activity"}, {"measurement": "pH of the composition below which parecoxib precipitates in free acid form", "setting": "[8]", "value": "below 7.4"}, {"measurement": "conversion to valdecoxib after parenteral administration", "setting": "[9]", "value": "rapidly and completely converted to valdecoxib"}]}
{"smiles": "CC(=O)[O-].[Na+]", "note": "[sodium acetate]", "values": [{"measurement": "Improvement in buffer capacity", "setting": "[1]; PEG 600/WFI 55/45 % by weight", "value": "negligible"}, {"measurement": "Improvement in buffer capacity", "setting": "[1]; PEG 600/WFI 65/35 % by weight", "value": "negligible"}]}
{"smiles": "O=C1O[C@H]([C@@H](O)CO)C([O-])=C1O.[Na+]", "note": "[sodium ascorbate]", "values": [{"measurement": "Improvement in buffer capacity", "setting": "[1]; PEG 600/WFI 65/35 % by weight", "value": "14-37%^1"}, {"measurement": "effect of added buffer on buffer capacity", "setting": "[1]", "value": "further improved buffer capacity"}]}
{"smiles": "CC(O)C(=O)[O-].[Na+]", "note": "(stereo not drawn) [sodium lactate]", "values": [{"measurement": "Improvement in buffer capacity", "setting": "[1]; PEG 600/WFI 65/35 % by weight", "value": "negligible"}]}
{"smiles": "O=C([O-])/C=C\\C(=O)[O-].[Na+].[Na+]", "note": "[sodium maleate]", "values": [{"measurement": "Improvement in buffer capacity", "setting": "[1]; PEG 600/WFI 65/35 % by weight", "value": 21, "unit": "%"}, {"measurement": "effect of added buffer on buffer capacity", "setting": "[1]", "value": "further improved buffer capacity"}]}
{"smiles": "NC(CO)(CO)CO", "note": "[tris, 2-amino-2-(hydroxymethyl)-1,3-propanediol]", "values": [{"measurement": "Improvement in buffer capacity", "setting": "[1]; PEG 600/WFI 55/45 % by weight", "value": 229, "unit": "%"}, {"measurement": "Improvement in buffer capacity", "setting": "[1]; PEG 600/WFI 65/35 % by weight", "value": 63, "unit": "%"}, {"measurement": "effect of added buffer on buffer capacity", "setting": "[1]", "value": "further improved buffer capacity"}, {"measurement": "Solubility > 0.01 M", "setting": "[2]", "value": "yes"}]}
{"smiles": "Cc1onc(-c2ccccc2)c1-c1ccc(S(N)(=O)=O)cc1", "note": "[valdecoxib]", "values": [{"measurement": "solubility in water", "setting": "[10]", "value": "about 10 μg/ml"}, {"measurement": "in vitro inhibitory activity against COX-1", "setting": "[7]", "value": "weak inhibitor"}]}
